# Bridge positions count the residues as written; N and C are the ends. Square brackets hold non-standard residues; d marks the D form. Peptide text beside a SMILES is read from it. Pen = CC(C)(S)[C@H](N)C(=O)O; Orn = NCCC[C@H](N)C(=O)O
# How the values were obtained:
# [1] = target: T1, endogeneous urotensin II receptor (UT receptor) in 6D9 cells (Homo sapiens, UniProt Q9UKP6); assay: 384-well FLIPR high throughput calcium mobilization assay in 6D9 cells; type: cell-based; details: 384-format
# T1 construct: endogenous in cells; host or cells: 6D9 (ATCC PTA-7749), sub-clone of human rhabdomyosarcoma line SJRH30 (ATCC CRL-2061)
# T1 sequence (Q9UKP6 1-389): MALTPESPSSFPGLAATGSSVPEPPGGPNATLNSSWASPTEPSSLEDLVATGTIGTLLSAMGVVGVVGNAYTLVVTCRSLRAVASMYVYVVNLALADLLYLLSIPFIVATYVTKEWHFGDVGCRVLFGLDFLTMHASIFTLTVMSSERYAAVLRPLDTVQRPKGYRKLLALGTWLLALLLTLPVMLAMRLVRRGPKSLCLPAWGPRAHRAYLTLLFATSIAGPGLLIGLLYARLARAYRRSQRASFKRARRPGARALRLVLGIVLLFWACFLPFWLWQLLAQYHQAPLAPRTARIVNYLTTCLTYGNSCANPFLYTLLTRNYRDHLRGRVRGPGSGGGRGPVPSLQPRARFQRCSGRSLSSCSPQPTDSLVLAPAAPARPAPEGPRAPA
# Method: Calcium mobilization was performed using FLIPR and Calcium 3, a non-wash Ca^2+ dye. Unlike the conventional Ca^2+ dye such as Fluo-3, Fluo-4, and Fura-2/AM, etc., the non-wash Ca^2+ dye was formulated to incorporate extracellular fluorescence quenchers and avoid the need to wash away extracellular Ca^2+ dye after loading the cells with the dye (Monteith and Bird, 2005, supra). Cells were plated into 96 or 384 well plates and were incubated at 37° C. After the incubation, the growth medium was removed and replaced with HBSS (Hanks Balanced salt solution #21-023-CV, Mediatech, Inc, Herndon, Va.) containing Calcium 3 dye with probenecid. […] This Example teaches a high throughput approach using FLIPR on a 384-well format. […] Various factors of the FLIPR assay had been tested to minimize the measure variability.
# [2] = target: T1, endogeneous urotensin II receptor (UT receptor) in 6D9 cells; assay: Calcium mobilization assay (FLIPR, Calcium 3 dye) in 6D9 cells; type: cell-based; details: 10 nM or 30 nM U-II (FIG. 6)
# Method: Calcium mobilization was performed using FLIPR and Calcium 3, a non-wash Ca^2+ dye. Unlike the conventional Ca^2+ dye such as Fluo-3, Fluo-4, and Fura-2/AM, etc., the non-wash Ca^2+ dye was formulated to incorporate extracellular fluorescence quenchers and avoid the need to wash away extracellular Ca^2+ dye after loading the cells with the dye (Monteith and Bird, 2005, supra).
# Cells were plated into 96 or 384 well plates and were incubated at 37° C. After the incubation, the growth medium was removed and replaced with HBSS (Hanks Balanced salt solution #21-023-CV, Mediatech, Inc, Herndon, Va.) containing Calcium 3 dye with probenecid.
# In addition, the cells survived in cultures for over 3 months (17 passages) and were still responsive to U-II (FIG. 4).
Dose dependence of response in HTS calcium mobilization assay [1],SMILES,Block of calcium mobilization coupled to U-II stimulation [2]
dose dependent responses,CC(C)[C@H](NC(=O)[C@@H]1CSSC(C)(C)[C@H](NC(=O)[C@@H](N)CC(=O)O)C(=O)N[C@@H](Cc2ccccc2)C(=O)N[C@H](Cc2c[nH]c3ccccc23)C(=O)N[C@@H](CCCN)C(=O)N[C@@H](Cc2ccc(O)cc2)C(=O)N1)C(=O)O [Urantide] (H-D[Pen]F[dW][Orn]YCV-OH; disulfide 2-7),blocked the calcium mobilization coupled to U-II stimulation
dose dependent responses,"CC(C)[C@H](NC(=O)[C@@H]1CSSC[C@H](NC(=O)[C@H](CC(=O)O)NC(=O)[C@@H]2CCCN2C(=O)[C@@H](NC(=O)[C@@H](N)CCC(=O)O)[C@@H](C)O)C(=O)N[C@@H](Cc2ccccc2)C(=O)N[C@@H](Cc2c[nH]c3ccccc23)C(=O)N[C@@H](CCCCN)C(=O)N[C@@H](Cc2ccc(O)cc2)C(=O)N1)C(=O)O [hU-II, SEQ ID NO: 2, ETPDCFWKYCV]",–

# From patent US7892826B2, “Human cell clones having an endogeneous urotensin II receptor” (Janssen Pharmaceutica N.V., priority 2005, dated 2011)
